The subject of this test is ADP-induced platelet aggregation (rabbit PRP). As to the kind of experiment: Inhibitory effect on ADP-induced platelet aggregation in PRP. The format is cell-based. The following applies: ADP (2 μM), preincubated 37° C. for 1 minute, inhibition rate (%) at this concentration in parentheses. As to the method:
Rabbit PRP (250 μl) was preincubated with drug samples (10 μl of aqueous solution or 1 μl of DMSO solution) at 37° C. for 1 minute, and ADP (2 μM)-induced platelet aggregation was measured by aggregometer (NKK HEMA TRACERl Model PAT-4M). Inhibitory effects of the drugs were estimated from the standard curve of maximal aggregation.

Structures are written as SMILES.

Take `O=S(=O)(NCCCN1CCN(C(c2ccccc2)c2ccccc2)CC1)c1ccc(Cl)cc1` [Example 9]: the “Platelet aggregation inhibitory concentration” value is given as 10^-4 mole/liter.

(Values after patent publication US4948892A, “Sulfonamid compound useful for treating cardiovascular disorders” (Kowa Comp., Ltd., priority 1988, dated 1990).)
